ChEMBL document CHEMBL3351608, “2-Phenylindole and Arylsulphonamide: Novel Scaffolds Bactericidal against Mycobacterium tuberculosis” (ACS Med Chem Lett, 2014)
Values after ≈ are worked out from the molar mass of the structure shown.

Tests used:
Assay in all cases: microbe, parasite or virus in culture
Conditions in all cases: variant bovis BCG, 3 h
[1] = system: Mycobacterium tuberculosis
[2] = system: Mycobacterium tuberculosis; remark: listed apart in the source
[3] = system: Mycobacterium tuberculosis; remark: listed apart in the source

| SMILES | IC50 [1] [µg/mL] | IC50 [2] [µg/mL] | IC50 [3] [µg/mL] |
| --- | --- | --- | --- |
| O=C(N[C@H](CO)[C@H](O)c1ccc([N+](=O)[O-])cc1)C(Cl)Cl [CHLORAMPHENICOL] | 5.6 (≈ 17.3 µM) | – | – |
| CO[C@H]1/C=C/O[C@@]2(C)Oc3c(C)c(O)c4c(O)c(c(/C=N/N5CCN(C)CC5)c(O)c4c3C2=O)NC(=O)/C(C)=C\C=C\[C@H](C)[C@H](O)[C@@H](C)[C@@H](O)[C@@H](C)[C@H](OC(C)=O)[C@@H]1C [RIFAMPIN] | 2 (≈ 2.43 µM) | 2.9 (≈ 3.52 µM) | – |
| C[C@@H]1CN(c2c(F)c(N)c3c(=O)c(C(=O)O)cn(C4CC4)c3c2F)C[C@H](C)N1 [SPARFLOXACIN] | 11.4 (≈ 29.1 µM) | 7.3 (≈ 18.6 µM) | 16.7 (≈ 42.6 µM) |
